According to ChEMBL document CHEMBL3627685, “Identification of a molecular target of kurahyne, an apoptosis-inducing lipopeptide from marine cyanobacterial assemblages” (Bioorg Med Chem Lett, 2015):
Activity calls are given as the source filed them. The rule behind the calls is not given here. Starred links: 1 amine or outer side, 2 acyl side, 3 side chain; linkers in the order of their positions; H or OH if unused. Non-standard residues stand in square brackets, D forms with d. Residues, ends and D or L forms follow the SMILES beside them. *: point of attachment. X2 = O=C(O)c1cc(N*)ccc1-c1c2ccc(=O)cc-2oc2cc(O)ccc12; Pyrrolidine(2S-propanoyl) = CCC(=O)[C@@H]1CCCN1*; Biotin = O=C1N[C@H]2[C@H](CS[C@H]2CCCCC(=O)*)N1; X3 = C/C(=C\CCCc1cn(CCCN[*:1])nn1)C(=O)[*:2]; NMeI = CC[C@H](C)[C@H](NC)C(=O)O; PEG4 = NCCOCCOCCOCCOCCC(=O)O; NMeV = CN[C@H](C(=O)O)C(C)C; CO = O=C([*:1])[*:2]

Assays:
[1] = tested on: HeLa; assay: Binding affinity to SERCA in human HeLa cells at […] after 12 hrs by immunoblot analysis; format: cell-based
[2] = tested on: HeLa; assay: Induction of endoplasmic reticulum stress in human HeLa cells assessed as upregulation of Bip mRNA expression at 100 uM after 6 hrs by RT-PCR analysis; format: functional, cell-based
[3] = tested on: HeLa S3; assay: Induction of Ca2+ release from endoplasmic reticulum into cytosol in human HeLaS3 cells at 10 uM by fura-2/AM-based spectrofluorometric analysis; format: functional, cell-based
[4] = Drug uptake in endoplasmic reticulum in human HeLa cells at 10 uM after 6 hrs by DsRed/DAPI dye-based fluorescence microscopic analysis; format: ADME, cell-based
[5] = tested on: NCI-H522; assay: Cytotoxicity against human NCI-H522 cells assessed as growth inhibition by sulforhodamine B assay; format: functional
[6] = tested on: NCI-H460; assay: Cytotoxicity against human NCI-H460 cells assessed as growth inhibition by sulforhodamine B assay; format: functional
[7] = tested on: A549; assay: Cytotoxicity against human A549 cells assessed as growth inhibition by sulforhodamine B assay; format: functional
[8] = Cytotoxicity against human DMS273 cells assessed as growth inhibition by sulforhodamine B assay; format: functional; settings: DMS-273
[9] = Cytotoxicity against human DMS114 cells assessed as growth inhibition by sulforhodamine B assay; format: functional; settings: DMS-114
[10] = tested on: LOX IMVI; assay: Cytotoxicity against human LOXIMVI cells assessed as growth inhibition by sulforhodamine B assay; format: functional
[11] = tested on: OVCAR-3; assay: Cytotoxicity against human OVCAR3 cells assessed as growth inhibition by sulforhodamine B assay; format: functional
[12] = tested on: OVCAR-4; assay: Cytotoxicity against human OVCAR4 cells assessed as growth inhibition by sulforhodamine B assay; format: functional
[13] = tested on: OVCAR-5; assay: Cytotoxicity against human OVCAR5 cells assessed as growth inhibition by sulforhodamine B assay; format: functional
[14] = tested on: OVCAR-8; assay: Cytotoxicity against human OVCAR8 cells assessed as growth inhibition by sulforhodamine B assay; format: functional
[15] = tested on: SK-OV-3; assay: Cytotoxicity against human SKOV3 cells assessed as growth inhibition by sulforhodamine B assay; format: functional
[16] = Cytotoxicity against human RXF631L cells assessed as growth inhibition by sulforhodamine B assay; format: functional; settings: RXF 631
[17] = tested on: ACHN; assay: Cytotoxicity against human ACHN cells assessed as growth inhibition by sulforhodamine B assay; format: functional
[18] = tested on: St-4; assay: Cytotoxicity against human St-4 cells assessed as growth inhibition by sulforhodamine B assay; format: functional
[19] = Cytotoxicity against human MKN1 cells assessed as growth inhibition by sulforhodamine B assay; format: functional; settings: MKN-1
[20] = Cytotoxicity against human MKN7 cells assessed as growth inhibition by sulforhodamine B assay; format: functional; settings: MKN-7
[21] = Cytotoxicity against human MKN28 cells assessed as growth inhibition by sulforhodamine B assay; format: functional; settings: MKN-28
[22] = Cytotoxicity against human MKN45 cells assessed as growth inhibition by sulforhodamine B assay; format: functional; settings: MKN-45
[23] = Cytotoxicity against human MKN74 cells assessed as growth inhibition by sulforhodamine B assay; format: functional; settings: MKN-74
[24] = tested on: DU-145; assay: Cytotoxicity against human DU145 cells assessed as growth inhibition by sulforhodamine B assay; format: functional
[25] = tested on: PC-3; assay: Cytotoxicity against human PC3 cells assessed as growth inhibition by sulforhodamine B assay; format: functional
[26] = tested on: HeLa S3; assay: Induction of Ca2+ release from endoplasmic reticulum into cytosol in human HeLaS3 cells by fura-2/AM-based spectrofluorometric analysis; format: functional, cell-based
[27] = tested on: HeLa; assay: Induction of endoplasmic reticulum stress in human HeLa cells assessed as upregulation of Bip mRNA expression at 10 uM after 6 hrs by RT-PCR analysis; format: functional, cell-based
[28] = tested on: HeLa; assay: Induction of endoplasmic reticulum stress in human HeLa cells assessed as upregulation of CHOP mRNA expression at 10 uM after 6 hrs by RT-PCR analysis; format: functional, cell-based
[29] = target: Sarcoplasmic/endoplasmic reticulum calcium ATPase 1 (Oryctolagus cuniculus) (UniProt P04191); assay: Inhibition of ATPase activity of SERCA1a in rabbit sarcoplasmic reticulum vesicles measured for 3 mins by lactate dehydrogenase/pyruvate kinase coupled assay
[30] = Cytotoxicity against mouse BMDM assessed as growth inhibition after 72 hrs by MTT assay
[31] = tested on: HeLa; assay: Cytotoxicity against human HeLa cells assessed as growth inhibition after 72 hrs by MTT assay; format: functional, cell-based
[32] = tested on: HL-60; assay: Cytotoxicity against human HL60 cells assessed as growth inhibition after 72 hrs by MTT assay; format: functional, cell-based; settings: HL-60, 72 h
[33] = Cytotoxicity against human HBC4 cells assessed as growth inhibition by sulforhodamine B assay; format: functional
[34] = Cytotoxicity against human BSY1 cells assessed as growth inhibition by sulforhodamine B assay; format: functional; settings: BSY-1
[35] = Cytotoxicity against human HBC5 cells assessed as growth inhibition by sulforhodamine B assay; format: functional
[36] = tested on: MCF7; assay: Cytotoxicity against human MCF7 cells assessed as growth inhibition by sulforhodamine B assay; format: functional
[37] = tested on: MDA-MB-231; assay: Cytotoxicity against human MDA-MB-231 cells assessed as growth inhibition by sulforhodamine B assay; format: functional
[38] = tested on: U-251; assay: Cytotoxicity against human U251 cells assessed as growth inhibition by sulforhodamine B assay; format: functional
[39] = tested on: SF-268; assay: Cytotoxicity against human SF268 cells assessed as growth inhibition by sulforhodamine B assay; format: functional
[40] = tested on: SF-295; assay: Cytotoxicity against human SF295 cells assessed as growth inhibition by sulforhodamine B assay; format: functional
[41] = tested on: SF-539; assay: Cytotoxicity against human SF539 cells assessed as growth inhibition by sulforhodamine B assay; format: functional
[42] = tested on: SNB-75; assay: Cytotoxicity against human SNB75 cells assessed as growth inhibition by sulforhodamine B assay; format: functional
[43] = Cytotoxicity against human SNB78 cells assessed as growth inhibition by sulforhodamine B assay; format: functional; settings: SNB-78
[44] = tested on: HCC 2998; assay: Cytotoxicity against human HCC2998 cells assessed as growth inhibition by sulforhodamine B assay; format: functional
[45] = tested on: KM12; assay: Cytotoxicity against human KM12 cells assessed as growth inhibition by sulforhodamine B assay; format: functional
[46] = tested on: HT-29; assay: Cytotoxicity against human HT-29 cells assessed as growth inhibition by sulforhodamine B assay; format: functional
[47] = tested on: HCT-15; assay: Cytotoxicity against human HCT15 cells assessed as growth inhibition by sulforhodamine B assay; format: functional
[48] = tested on: HCT-116; assay: Cytotoxicity against human HCT116 cells assessed as growth inhibition by sulforhodamine B assay; format: functional
[49] = tested on: NCI-H23; assay: Cytotoxicity against human NCI-H23 cells assessed as growth inhibition by sulforhodamine B assay; format: functional
[50] = tested on: NCI-H226; assay: Cytotoxicity against human NCI-H226 cells assessed as growth inhibition by sulforhodamine B assay; format: functional
[51] = tested on: HeLa S3; assay: Induction of Ca2+ release from endoplasmic reticulum into cytosol in human HeLaS3 cells at 1 uM by fura-2/AM-based spectrofluorometric analysis; format: functional, cell-based
[52] = tested on: HeLa; assay: Induction of endoplasmic reticulum stress in human HeLa cells assessed as upregulation of Bip mRNA expression at 1 uM after 6 hrs by RT-PCR analysis; format: functional, cell-based
[53] = tested on: HeLa; assay: Induction of endoplasmic reticulum stress in human HeLa cells assessed as upregulation of CHOP mRNA expression at 1 uM after 6 hrs by RT-PCR analysis; format: functional, cell-based
[54] = target: Sarcoplasmic/endoplasmic reticulum calcium ATPase 1 (Oryctolagus cuniculus) (UniProt P04191); assay: Inhibition of ATPase activity of SERCA1a in rabbit sarcoplasmic reticulum vesicles at 30 uM measured for 3 mins by lactate dehydrogenase/pyruvate kinase coupled assay

Sarcoplasmic/endoplasmic reticulum calcium ATPase 1 (Oryctolagus cuniculus), sequence (P04191 whole entry): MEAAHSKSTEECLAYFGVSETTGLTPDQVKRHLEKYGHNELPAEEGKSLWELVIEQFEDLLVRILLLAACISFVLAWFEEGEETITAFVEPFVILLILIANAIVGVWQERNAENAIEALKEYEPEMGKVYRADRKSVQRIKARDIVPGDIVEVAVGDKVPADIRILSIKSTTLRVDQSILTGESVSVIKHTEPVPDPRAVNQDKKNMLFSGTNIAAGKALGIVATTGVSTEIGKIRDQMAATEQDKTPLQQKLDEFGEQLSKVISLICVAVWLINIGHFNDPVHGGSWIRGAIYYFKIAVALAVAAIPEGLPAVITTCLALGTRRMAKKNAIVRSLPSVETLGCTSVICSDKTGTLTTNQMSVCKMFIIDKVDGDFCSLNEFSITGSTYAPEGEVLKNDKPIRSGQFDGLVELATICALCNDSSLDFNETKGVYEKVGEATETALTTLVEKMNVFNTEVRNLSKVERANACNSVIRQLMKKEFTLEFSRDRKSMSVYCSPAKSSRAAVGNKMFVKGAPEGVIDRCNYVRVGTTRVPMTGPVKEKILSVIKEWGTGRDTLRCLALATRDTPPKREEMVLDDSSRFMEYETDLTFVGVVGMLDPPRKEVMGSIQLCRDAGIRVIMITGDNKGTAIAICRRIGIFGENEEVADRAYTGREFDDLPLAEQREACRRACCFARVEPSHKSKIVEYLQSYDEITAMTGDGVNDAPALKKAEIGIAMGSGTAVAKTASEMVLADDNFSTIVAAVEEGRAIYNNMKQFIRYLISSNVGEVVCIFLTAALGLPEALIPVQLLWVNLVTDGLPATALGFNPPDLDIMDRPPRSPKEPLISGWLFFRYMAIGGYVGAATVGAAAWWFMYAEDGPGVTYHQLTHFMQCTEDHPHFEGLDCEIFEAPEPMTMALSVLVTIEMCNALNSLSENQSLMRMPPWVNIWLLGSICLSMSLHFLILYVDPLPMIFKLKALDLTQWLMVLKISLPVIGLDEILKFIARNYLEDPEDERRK

SMILES: CCC(=O)[C@@H]1CCCN1C(=O)[C@@H]1CCCN1C(=O)[C@H](C(C)C)N(C)C(=O)[C@H](C(C)C)N(C)C(=O)[C@H]([C@@H](C)CC)N(C)C(=O)[C@H]([C@@H](C)CC)N(C)C(=O)/C(C)=C/CCCc1cn(CCCNC(=O)CCOCCOCCOCCOCCNC(=O)CCCC[C@@H]2SC[C@@H]3NC(=O)N[C@@H]32)nn1 ({Biotin-PEG4}-[X3][NMeI][NMeI][NMeV][NMeV]P-{Pyrrolidine(2S-propanoyl)})
- Activity [1]: Active

SMILES: C#CCCC/C=C(\C)C(=O)N(C)[C@H](C(=O)N(C)[C@H](C(=O)N(C)[C@H](C(=O)N(C)[C@H](C(=O)N1CCC[C@H]1C(=O)N1CCC[C@H]1/C(CC)=N/OCC(=O)NCCCCCNC(=S)Nc1ccc(-c2c3ccc(=O)cc-3oc3cc(O)ccc23)c(C(=O)O)c1)C(C)C)C(C)C)[C@@H](C)CC)[C@@H](C)CC
- Activity [2]: inactive

SMILES: CC(=O)C1=C(O)[C@@H]2[C@H]3c4c[nH]c5cccc(c45)C[C@H]3C(C)(C)N2C1=O
- Activity [3]: Active

SMILES: CCC(=O)[C@@H]1CCCN1C(=O)[C@@H]1CCCN1C(=O)[C@H](C(C)C)N(C)C(=O)[C@H](C(C)C)N(C)C(=O)[C@H]([C@@H](C)CC)N(C)C(=O)[C@H]([C@@H](C)CC)N(C)C(=O)/C(C)=C/CCCc1cn(CCCNC(=O)Nc2ccc(-c3c4ccc(=O)cc-4oc4cc(O)ccc34)c(C(=O)O)c2)nn1 ({X2-CO}-[X3][NMeI][NMeI][NMeV][NMeV]P-{Pyrrolidine(2S-propanoyl)})
- Activity [2]: Active
- Drug uptake [4]: Active

SMILES: C#CCCC/C=C(\C)C(=O)N(C)[C@H](C(=O)N(C)[C@H](C(=O)N(C)[C@H](C(=O)N(C)[C@H](C(=O)N1CCC[C@H]1C(=O)N1CCC[C@H]1C(=O)CC)C(C)C)C(C)C)[C@@H](C)CC)[C@@H](C)CC (HELM PEPTIDE1{[C#CCCC/C=C(\C)C(=O)[*:2]].[meI].[meI].[meV].[meV].P.[CCC(=O)[C@@H]1CCCN1[*:1]]}$$$$V2.0)
- GI50 [5]: 2.4 µM
- GI50 [6]: 9.55 µM
- GI50 [7]: 7.24 µM
- GI50 [8]: 5.5 µM
- GI50 [9]: 4.9 µM
- GI50 [10]: 3.89 µM
- GI50 [11]: 6.61 µM
- GI50 [12]: 11 µM
- GI50 [13]: 11.2 µM
- GI50 [14]: 14.5 µM
- GI50 [15]: 11.2 µM
- GI50 [16]: 5.89 µM
- GI50 [17]: 13.5 µM
- GI50 [18]: 13.2 µM
- GI50 [19]: 15.1 µM
- GI50 [20]: 7.41 µM
- GI50 [21]: 12.9 µM
- GI50 [22]: 7.94 µM
- GI50 [23]: 3.72 µM
- GI50 [24]: 13.8 µM
- GI50 [25]: 4.47 µM
- Activity [26]: Dose-dependent effect
- Activity [27]: Active
- Activity [28]: Active
- inhibition [29]: Dose-dependent effect
- IC50 [30]: 1.96 µM
- IC50 [31]: 3.9 µM
- IC50 [32]: 1.5 µM
- GI50 [33]: 12.3 µM
- GI50 [34]: 3.09 µM
- GI50 [35]: 10.5 µM
- GI50 [36]: 3.98 µM
- GI50 [37]: 4.17 µM
- GI50 [38]: 8.32 µM
- GI50 [39]: 5.62 µM
- GI50 [40]: 10.7 µM
- GI50 [41]: 10 µM
- GI50 [42]: 14.5 µM
- GI50 [43]: 16.6 µM
- GI50 [44]: 14.8 µM
- GI50 [45]: 12.9 µM
- GI50 [46]: 4.47 µM
- GI50 [47]: 11.5 µM
- GI50 [48]: 5.13 µM
- GI50 [49]: 13.8 µM
- GI50 [50]: 7.24 µM

SMILES: C/C=C(/C)C(=O)O[C@H]1C(C)=C2[C@H]([C@@H]1OC(=O)CCCCCCC)[C@@](C)(OC(C)=O)C[C@H](OC(=O)CCC)[C@@]1(O)[C@H]2OC(=O)[C@@]1(C)O
- Activity [51]: Active
- Activity [52]: Active
- Activity [53]: Active
- inhibition [54]: Active
